SMILES strings stand for the structures.

For test [1], the target named is T1, Cyclin-dependent kinase 1 (Homo sapiens, UniProt P06493). Briefly: Inhibition of CDK1.
Target sequence in this assay (P06493 whole entry): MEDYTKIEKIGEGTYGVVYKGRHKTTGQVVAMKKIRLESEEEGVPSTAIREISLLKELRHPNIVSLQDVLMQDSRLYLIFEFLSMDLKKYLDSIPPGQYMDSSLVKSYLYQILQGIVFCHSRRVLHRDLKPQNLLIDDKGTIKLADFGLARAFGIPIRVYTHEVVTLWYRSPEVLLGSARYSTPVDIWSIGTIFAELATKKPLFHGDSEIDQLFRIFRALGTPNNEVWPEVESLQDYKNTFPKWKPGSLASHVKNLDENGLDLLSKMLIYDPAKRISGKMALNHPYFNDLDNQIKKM
In test [2] the target is T2, Vascular endothelial growth factor receptor 2 (Homo sapiens, UniProt P35968). Briefly: Inhibition of VEGFR2.
Test [3] concerns the target T3, Aurora kinase A (Homo sapiens, UniProt O14965).
T3 sequence (O14965 whole entry): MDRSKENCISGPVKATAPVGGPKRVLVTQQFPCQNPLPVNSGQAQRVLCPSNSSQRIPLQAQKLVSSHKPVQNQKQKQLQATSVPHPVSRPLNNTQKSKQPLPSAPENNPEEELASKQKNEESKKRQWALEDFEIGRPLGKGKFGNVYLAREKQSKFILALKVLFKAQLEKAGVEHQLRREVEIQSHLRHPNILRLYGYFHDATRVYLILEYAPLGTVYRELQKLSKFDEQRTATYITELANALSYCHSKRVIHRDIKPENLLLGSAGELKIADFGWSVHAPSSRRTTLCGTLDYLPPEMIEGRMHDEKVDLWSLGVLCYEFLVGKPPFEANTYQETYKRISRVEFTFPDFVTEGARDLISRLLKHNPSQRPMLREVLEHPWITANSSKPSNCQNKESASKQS
As to the kind of experiment: Inhibition of Aurora A.

Test [4] has as its target Receptor tyrosine-protein kinase erbB-2 (Homo sapiens, UniProt P04626). As to the kind of experiment: Inhibition of HER2.
The test system of test [5] is BT-474. As to the kind of experiment: Cytotoxicity against human HER2-dependent BT474 cells. Format: functional, cell-based.
The target of test [6] is Epidermal growth factor receptor (Homo sapiens, UniProt P00533).
In test [7] the test system is SK-BR-3. Briefly: Cytotoxicity against human HER2-dependent SKBR3 cells. Format: functional, cell-based.
The test system of test [8] is NCI-N87. As to the kind of experiment: Cytotoxicity against human HER2-dependent N87 cells. Format: functional, cell-based.
For test [9], the system named is HeLa. As to the kind of experiment: Cytotoxicity against human non-HER2-dependent HeLa cells. Format: functional, cell-based.
For test [10], the target named is T4, Aurora kinase A (Homo sapiens) (UniProt O14965).
T4 sequence (whole entry): T3 sequence (O14965 whole entry)
Briefly: Inhibition of Aurora A at 100 uM.

The target of test [11] is T1, Cyclin-dependent kinase 1. Briefly: Inhibition of CDK1 at 100 uM.
Target sequence in this assay (P06493 whole entry, looked up): as the sequence (P06493 whole entry) above
For test [12], the target named is T2, Vascular endothelial growth factor receptor 2. Briefly: Inhibition of VEGFR2 at 100 uM.

T2 sequence (P35968 whole entry): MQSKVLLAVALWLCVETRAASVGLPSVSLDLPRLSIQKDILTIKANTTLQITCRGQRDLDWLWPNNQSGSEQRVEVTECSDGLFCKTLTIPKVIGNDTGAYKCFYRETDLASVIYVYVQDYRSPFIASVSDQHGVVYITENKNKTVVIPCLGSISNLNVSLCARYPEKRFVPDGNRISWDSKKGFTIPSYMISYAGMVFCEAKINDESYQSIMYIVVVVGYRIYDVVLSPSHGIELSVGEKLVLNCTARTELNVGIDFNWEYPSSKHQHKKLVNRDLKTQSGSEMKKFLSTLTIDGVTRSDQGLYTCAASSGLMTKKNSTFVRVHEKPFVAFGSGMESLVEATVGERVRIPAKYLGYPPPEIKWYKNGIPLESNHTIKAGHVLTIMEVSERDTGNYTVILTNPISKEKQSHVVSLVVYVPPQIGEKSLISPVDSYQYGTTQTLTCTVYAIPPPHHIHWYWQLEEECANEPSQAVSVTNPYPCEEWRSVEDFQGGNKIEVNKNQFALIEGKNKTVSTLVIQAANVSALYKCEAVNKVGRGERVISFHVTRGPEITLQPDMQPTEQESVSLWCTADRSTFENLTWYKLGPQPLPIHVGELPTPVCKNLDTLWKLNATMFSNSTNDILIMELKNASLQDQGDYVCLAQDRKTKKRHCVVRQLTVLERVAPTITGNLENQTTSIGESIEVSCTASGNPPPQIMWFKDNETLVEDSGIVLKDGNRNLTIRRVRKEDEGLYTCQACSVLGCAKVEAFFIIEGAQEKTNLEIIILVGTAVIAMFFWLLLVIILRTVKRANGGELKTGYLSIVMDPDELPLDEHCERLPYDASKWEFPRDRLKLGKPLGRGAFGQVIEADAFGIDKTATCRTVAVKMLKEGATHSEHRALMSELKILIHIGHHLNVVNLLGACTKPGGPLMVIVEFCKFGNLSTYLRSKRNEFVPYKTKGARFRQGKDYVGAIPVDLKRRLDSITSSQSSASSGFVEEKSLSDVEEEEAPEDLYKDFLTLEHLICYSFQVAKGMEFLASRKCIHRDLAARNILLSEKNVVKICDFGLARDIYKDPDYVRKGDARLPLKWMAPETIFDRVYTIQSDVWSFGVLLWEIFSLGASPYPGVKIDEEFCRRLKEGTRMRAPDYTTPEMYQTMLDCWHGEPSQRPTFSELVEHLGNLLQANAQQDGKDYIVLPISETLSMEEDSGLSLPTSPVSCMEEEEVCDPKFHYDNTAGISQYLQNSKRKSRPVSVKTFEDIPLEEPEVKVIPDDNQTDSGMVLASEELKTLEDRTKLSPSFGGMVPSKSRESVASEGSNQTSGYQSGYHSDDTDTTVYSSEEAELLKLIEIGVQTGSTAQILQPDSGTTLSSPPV
Receptor tyrosine-protein kinase erbB-2, sequence (P04626 whole entry): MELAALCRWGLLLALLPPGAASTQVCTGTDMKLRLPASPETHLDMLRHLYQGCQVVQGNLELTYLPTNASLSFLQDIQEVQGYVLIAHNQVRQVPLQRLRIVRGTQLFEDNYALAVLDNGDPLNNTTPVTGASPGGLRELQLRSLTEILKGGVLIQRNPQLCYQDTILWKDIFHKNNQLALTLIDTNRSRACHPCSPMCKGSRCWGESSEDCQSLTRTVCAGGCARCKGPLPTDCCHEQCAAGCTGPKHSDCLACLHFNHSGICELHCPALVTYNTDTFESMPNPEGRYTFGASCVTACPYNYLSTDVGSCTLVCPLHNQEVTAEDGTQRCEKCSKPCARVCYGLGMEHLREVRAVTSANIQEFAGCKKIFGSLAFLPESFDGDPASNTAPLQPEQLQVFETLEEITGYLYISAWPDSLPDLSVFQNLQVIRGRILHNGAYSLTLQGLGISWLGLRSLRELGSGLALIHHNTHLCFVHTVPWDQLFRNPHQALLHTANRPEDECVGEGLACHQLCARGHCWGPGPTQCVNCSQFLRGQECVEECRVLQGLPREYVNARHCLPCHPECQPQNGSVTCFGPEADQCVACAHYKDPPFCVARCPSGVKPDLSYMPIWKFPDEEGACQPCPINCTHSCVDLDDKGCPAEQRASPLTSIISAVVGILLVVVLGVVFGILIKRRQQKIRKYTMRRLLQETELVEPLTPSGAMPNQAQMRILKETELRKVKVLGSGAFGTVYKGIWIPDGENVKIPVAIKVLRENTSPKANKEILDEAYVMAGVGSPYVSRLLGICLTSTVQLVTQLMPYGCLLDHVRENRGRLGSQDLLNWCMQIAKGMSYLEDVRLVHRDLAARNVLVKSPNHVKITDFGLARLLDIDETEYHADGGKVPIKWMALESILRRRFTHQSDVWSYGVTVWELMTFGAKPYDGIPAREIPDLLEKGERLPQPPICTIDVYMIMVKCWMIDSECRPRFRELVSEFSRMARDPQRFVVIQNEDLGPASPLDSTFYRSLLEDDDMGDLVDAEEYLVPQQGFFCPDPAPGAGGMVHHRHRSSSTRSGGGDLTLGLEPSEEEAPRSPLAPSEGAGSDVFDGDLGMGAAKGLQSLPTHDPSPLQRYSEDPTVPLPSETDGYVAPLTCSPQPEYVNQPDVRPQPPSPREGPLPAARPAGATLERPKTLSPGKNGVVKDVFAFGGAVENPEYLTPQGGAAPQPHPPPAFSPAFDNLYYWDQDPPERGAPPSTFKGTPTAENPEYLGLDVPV
Epidermal growth factor receptor, sequence (P00533 whole entry): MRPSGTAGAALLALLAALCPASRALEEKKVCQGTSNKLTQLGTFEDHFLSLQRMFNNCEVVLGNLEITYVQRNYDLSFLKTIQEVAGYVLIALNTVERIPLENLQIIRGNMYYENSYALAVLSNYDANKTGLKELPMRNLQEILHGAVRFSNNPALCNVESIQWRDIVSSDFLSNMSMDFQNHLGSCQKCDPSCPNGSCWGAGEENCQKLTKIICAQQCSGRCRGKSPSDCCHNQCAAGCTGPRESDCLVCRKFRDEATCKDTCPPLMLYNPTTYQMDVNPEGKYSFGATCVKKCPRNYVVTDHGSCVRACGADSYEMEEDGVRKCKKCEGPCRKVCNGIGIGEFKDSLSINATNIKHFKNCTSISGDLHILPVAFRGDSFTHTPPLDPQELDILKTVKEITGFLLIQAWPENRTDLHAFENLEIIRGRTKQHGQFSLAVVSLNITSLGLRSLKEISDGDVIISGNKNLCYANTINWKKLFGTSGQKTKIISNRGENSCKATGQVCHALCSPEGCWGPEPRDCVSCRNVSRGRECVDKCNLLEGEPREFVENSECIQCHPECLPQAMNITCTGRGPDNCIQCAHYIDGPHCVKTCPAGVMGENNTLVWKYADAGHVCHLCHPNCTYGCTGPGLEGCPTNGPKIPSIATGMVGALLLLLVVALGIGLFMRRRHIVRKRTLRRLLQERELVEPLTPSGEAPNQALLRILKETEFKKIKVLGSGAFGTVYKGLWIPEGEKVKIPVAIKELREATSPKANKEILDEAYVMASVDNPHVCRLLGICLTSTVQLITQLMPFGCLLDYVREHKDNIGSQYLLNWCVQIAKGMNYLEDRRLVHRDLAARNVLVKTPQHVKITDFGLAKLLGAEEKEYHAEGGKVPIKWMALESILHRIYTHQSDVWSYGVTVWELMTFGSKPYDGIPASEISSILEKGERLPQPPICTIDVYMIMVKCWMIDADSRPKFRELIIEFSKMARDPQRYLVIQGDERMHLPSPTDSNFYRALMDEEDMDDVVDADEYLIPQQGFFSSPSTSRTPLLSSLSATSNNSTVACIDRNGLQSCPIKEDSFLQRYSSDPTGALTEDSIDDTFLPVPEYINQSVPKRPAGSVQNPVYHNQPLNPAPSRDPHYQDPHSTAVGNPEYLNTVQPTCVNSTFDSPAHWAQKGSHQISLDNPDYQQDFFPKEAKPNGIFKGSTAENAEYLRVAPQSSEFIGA

Consider `COc1ccc(NC(=O)c2c(N)ncnc2Nc2ccc(OCc3ccccc3)c(Cl)c2)cc1`, for which the IC50 in test [1] was above 100 µM; in test [2], above 100 µM; in [3], above 10 µM; in [4], above 100 µM.
In the case of `CCN(CC)C(=O)c1c(N)ncnc1Nc1ccc(OCc2ccccc2)c(Cl)c1`, the 50% inhibitory concentration (IC50) in [1], in test [2], in test [3] and in [4] was above 100 µM each time.
As to `Nc1ncnc(Nc2ccc(OCc3ccccc3)c(Cl)c2)c1C(=O)NCCN1CCOCC1`, the IC50 in [1] is above 100 µM; in test [2] it was above 100 µM; in test [3], above 100 µM; in test [4] it was 10 µM.
As for `Nc1ncnc(Nc2ccc(OCc3ccccc3)c(Cl)c2)c1-c1nnc(CCN2CCOCC2)o1`, the IC50 in [1] is above 100 µM; in test [5], 0.312 µM; in test [6], 0.03 µM; in test [2] it was above 100 µM; in [3] it was above 100 µM; in [7], 0.325 µM. Further, the IC50 in test [8] was 0.411 µM; in test [4], 0.08 µM; in test [9], above 100 µM.
Consider `NNC(=O)c1c(N)ncnc1Nc1ccc(OCc2ccccc2)c(Cl)c1`, for which the IC50 in [1] is above 100 µM; in test [2], above 10 µM; in [3] it was above 10 µM; in test [4], 0.146 µM.
Consider `COC(=O)c1c(N)ncnc1Nc1ccc(OCc2ccccc2)c(Cl)c1`, for which, in [10], the inhibition is 50%. This molecule also displayed a concentration for half-maximal inhibition (IC50) in [4] of 0.1 µM.
Take `Nc1ncnc(Nc2ccc(OCc3ccccc3)c(Cl)c2)c1C(=O)OCc1cccc(F)c1`: the IC50 in [1], in [2], in test [3] and in test [4] was above 100 µM each time.
For the molecule `Nc1ncnc(Nc2ccc(OCc3ccccc3)c(Cl)c2)c1C(=O)Nc1ccccc1`, the half-inhibitory concentration (IC50) is above 100 µM in test [1]; 0.076 µM in [6]; above 100 µM in test [2]; above 100 µM in test [3]; above 100 µM in [4].
On to `Nc1ncnc(Nc2ccc(OCc3ccccc3)c(Cl)c2)c1C(=O)NNC(=O)CCN1CCOCC1`, for which the IC50 in [1], in [2] and in test [3] was above 100 µM throughout.
`Nc1ncnc(Nc2ccc(OCc3ccccc3)c(Cl)c2)c1C(=O)NCCN1CCCCC1`: the IC50 in test [1] is above 100 µM; in test [2], above 100 µM; in test [3], 100 µM.
`Nc1ncnc(Nc2ccc(OCc3ccccc3)c(Cl)c2)c1C(=O)OCCN1CCOCC1`: the inhibition in test [11] is below 10%; in test [12], 11%; in test [10] it was 55%. Further, the midpoint of inhibition in [4], the IC50, lay at 1.53 µM.
Take `COCCNC(=O)c1c(N)ncnc1Nc1ccc(OCc2ccccc2)c(Cl)c1`: the IC50 in test [1], in test [2], in [3] and in test [4] was above 100 µM each time.
`Nc1ncnc(Nc2ccc(OCc3ccccc3)c(Cl)c2)c1C(=O)O`: the inhibition is below 10% in test [11], 30% in test [12] and 73% in test [10].
The matching figures for `Nc1ncnc(Nc2ccc(OCc3ccccc3)c(Cl)c2)c1C=O`: below 10%, below 10% and 30%.
Consider `N#Cc1c(N)ncnc1Nc1ccc(OCc2ccccc2)c(Cl)c1`, for which the results for the inhibition in test [11], in test [12] and in test [10] were below 10%, 37% and 33%, respectively. For the same molecule, the IC50 amounted to 0.027 µM in test [6] and 0.47 µM in test [4].
`COc1ccc(CCNC(=O)c2c(N)ncnc2Nc2ccc(OCc3ccccc3)c(Cl)c2)cc1`: the concentration for half-maximal inhibition (IC50) in test [1], in test [2], in test [3] and in test [4] was above 100 µM each time.

For orientation: IC50 means the concentration needed to halve the response being measured. Usually inhibition stands for the change of the read-out against control, counted positive when it falls. Higher therefore signals a strong effect.

The values above are taken from ChEMBL document CHEMBL1156722, “A novel 5-[1,3,4-oxadiazol-2-yl]-N-aryl-4,6-pyrimidine diamine having dual EGFR/HER2 kinase activity: design, synthesis, and biological activity” (Bioorg Med Chem Lett, 2008).
